Test results taken from paper PMC5601071 (Frontiers in Pharmacology, 2017).
Like-named read-outs stand apart in the source and are kept apart here. Residues, ends and D or L forms follow the SMILES beside them. *: point of attachment. FITC = O=C1OC2(c3ccc(O)cc3Oc3cc(O)ccc32)c2ccc(NC(=S)*)cc21; 5FAM = O=C1OC2(c3ccc(O)cc3Oc3cc(O)ccc32)c2ccc(C(=O)*)cc21; Biotin = O=C1N[C@H]2[C@H](CS[C@H]2CCCCC(=O)*)N1; Dansyl = CN(C)c1cccc2c(S(=O)(=O)*)cccc12; Fmoc = O=C(OCC1c2ccccc2-c2ccccc21)*; Myristoyl = CCCCCCCCCCCCCC(=O)*; For = O=C*

Target: T1, TREK-1 channel (hTREK-1/HEK cells) (Homo sapiens, UniProt O95069)
T1 construct: expressed in transfected cells
T1 sequence (O95069 1-426): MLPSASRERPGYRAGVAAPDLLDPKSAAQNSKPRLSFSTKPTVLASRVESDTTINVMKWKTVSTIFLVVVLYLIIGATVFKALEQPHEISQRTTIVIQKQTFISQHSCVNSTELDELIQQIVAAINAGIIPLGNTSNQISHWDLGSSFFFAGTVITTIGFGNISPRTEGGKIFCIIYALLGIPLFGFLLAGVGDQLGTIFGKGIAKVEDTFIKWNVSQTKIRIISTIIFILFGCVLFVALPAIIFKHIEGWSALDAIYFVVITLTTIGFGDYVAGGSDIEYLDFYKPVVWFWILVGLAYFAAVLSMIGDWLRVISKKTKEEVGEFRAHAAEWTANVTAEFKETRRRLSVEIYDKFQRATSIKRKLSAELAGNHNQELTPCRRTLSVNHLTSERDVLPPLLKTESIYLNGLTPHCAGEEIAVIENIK
Test: TREK-1 current inhibition, whole-cell patch-clamp on hTREK-1/HEK cell line
Assay type: cell-based
Protocol: The human TREK-1/HEK cell line (Moha ou Maati et al., [2011]) and the native HEK293 cell line were maintained in Dulbecco's Modified Eagle's Medium (DMEM) supplemented with 10% (v/v) heat-inactivated fetal bovine serum, 1% (v/v) penicillin-streptomycin, 1% Glutamax. For the hTREK-1/HEK cells, 0.5 mg/ml G418 were added to the medium.
Cells were incubated in a humidified atmosphere containing 5% CO2. For electrophysiological measurements, cells were plated at a density of 20,000 cells per 35 mm dish.
Cells from the hTREK-1/HEK cell line were seeded at a density of 20,000 cells/35 mm dish. Electrophysiological recordings were performed 24–48 h after plating using the whole-cell configuration of patch-clamp technique. TREK-1 currents (ITREK−1) were recorded using RK400 patch-clamp amplifier (Axon Instrument, USA). They were low-pass filtered at 3 kHz and digitized at 10 kHz using a 12-bit analog-to-digital converter digidata (1322 series, Axon Instrument, USA). ITREK−1amplitudes were expressed as current densities [current amplitude (pA)/membrane capacitance (pF)]. The results were expressed as mean ± SEM (standard error of the mean).
Cells were continuously perfused using an external bath solution containing in mM: 150 NaCl, 5 KCl, 3 MgCl2, 1 CaCl2, and 10 HEPES. The bath solution was initially adjusted to pH 7.4 with NaOH. The intra-pipette solution contained in mM: 155 KCl, 3 MgCl2, 5 EGTA, and 10 HEPES adjusted to pH 7.2 with KOH. In order to measure ITREK−1, a cocktail of potassium channel blockers was added to the bath solution. This cocktail contained: 3 mM 4-AP (4-aminopyridine), 10 mM TEA (tetraethylammonium), 10 μM Glibenclamide, 100 nM Apamin, and 50 nM Charybdotoxin. Data acquisition was carried out using a computer (Dell Pentium) with pClamp software (Axon Instrument, USA). Whole-cell currents were generated by running a pulse or ramp protocol every 5 s from −100 to +60 mV with a holding potential maintained at −80 mV. To evaluate the inhibitory effect on TREK-1 channels of shortened spadin analogs compared with spadin, cells were first activated by 10 μM arachidonic acid (AA). Dose-response curves were realized to compare spadin-analog effects with spadin using Origin 8.6 (Northampton, MA, USA).
Patch-clamp recording data were analyzed using Clampfit (Molecular Devices, USA). I = f(V) curves were obtained from −100 to +60 mV ramp. Data were presented as mean ± SEM.

[1] = HEK293, peptide 100 nM, TREK-1 first activated with 10 μM arachidonic acid (AA), current density at 0 mV, hTREK-1/HEK cells, mean ± SEM, n = cells, read-out: % of TREK-1 inhibition
[2] = HEK293, read-out: % of TREK-1 inhibition

## CC(C)C[C@H](NC(=O)CNC(=O)[C@H](Cc1c[nH]c2ccccc12)NC(=O)[C@H](CO)NC(=O)[C@@H](NC(=O)CNC(=O)c1ccc2c(c1)C(=O)OC21c2ccc(O)cc2Oc2cc(O)ccc21)C(C)C)C(=O)N[C@@H](CCCNC(=N)N)C(=O)O [5'FAM-PE 22-28] (5FAM-GVSWGLR-OH)
[1]
  inhibition at 0.1 µM: 6.63 ± 7.07%

## CC(=O)NCC(=O)N[C@H](C(=O)N[C@@H](CO)C(=O)N[C@@H](Cc1c[nH]c2ccccc12)C(=O)NCC(=O)N[C@@H](CC(C)C)C(=O)N[C@@H](CCCNC(=N)N)C(=O)O)C(C)C [Acetyl-PE 22-28] (Ac-GVSWGLR-OH)
[2]
  inhibition at 0.1 µM: 20.5 ± 8.78%

## CC(C)C[C@H](NC(=O)CNC(=O)[C@H](Cc1c[nH]c2ccccc12)NC(=O)[C@H](CO)NC(=O)[C@@H](NC(=O)[C@H](C)NC(=O)CCCC[C@@H]1SC[C@@H]2NC(=O)N[C@@H]21)C(C)C)C(=O)N[C@@H](CCCNC(=N)N)C(=O)O [Biotinylated G/A-PE 22-28] (Biotin-AVSWGLR-OH)
[1]
  inhibition at 0.1 µM: 46.1 ± 7.74%

## CC(C)C[C@H](NC(=O)CNC(=O)[C@H](Cc1c[nH]c2ccccc12)NC(=O)[C@H](CO)NC(=O)[C@@H](NC(=O)CNC(=O)CCCC[C@@H]1SC[C@@H]2NC(=O)N[C@@H]21)C(C)C)C(=O)N[C@@H](CCCNC(=N)N)C(=O)O [Biotinylated-PE 22-28] (Biotin-GVSWGLR-OH)
[1]
  inhibition at 0.1 µM: 53 ± 6.42%

## CC[C@H](C)[C@H](NC(=O)[C@@H]1CCCN1C(=O)CCCC[C@@H]1SC[C@@H]2NC(=O)N[C@@H]21)C(=O)NCC(=O)N[C@H](C(=O)N[C@@H](CO)C(=O)N[C@@H](Cc1c[nH]c2ccccc12)C(=O)NCC(=O)N[C@@H](CC(C)C)C(=O)N[C@@H](CCCNC(=N)N)C(=O)O)C(C)C [Biotinylated-PI-PE 22-28] (Biotin-PIGVSWGLR-OH)
[1]
  inhibition at 0.1 µM: 49.1 ± 7.45%

## CC(C)C[C@H](NC(=O)CNC(=O)[C@H](Cc1c[nH]c2ccccc12)NC(=O)[C@H](CO)NC(=O)[C@@H](NC(=O)CNS(=O)(=O)c1cccc2c(N(C)C)cccc12)C(C)C)C(=O)N[C@@H](CCCNC(=N)N)C(=O)O [DansyI-PE 22-28] (Dansyl-GVSWGLR-OH)
[2]
  inhibition at 0.1 µM: 48.8 ± 14.5%

## CC(C)C[C@H](NC(=O)CNC(=O)[C@H](Cc1c[nH]c2ccccc12)NC(=O)[C@H](CO)NC(=O)[C@@H](NC(=O)CNC(=O)OCC1c2ccccc2-c2ccccc21)C(C)C)C(=O)N[C@@H](CCCNC(=N)N)C(=O)O [F-Moc-PE 22-28] (Fmoc-GVSWGLR-OH)
[2]
  inhibition at 0.1 µM: 5.83 ± 10.9%

## CC(C)C[C@H](NC(=O)CNC(=O)[C@H](Cc1c[nH]c2ccccc12)NC(=O)[C@H](CO)NC(=O)[C@@H](NC(=O)CNC(=S)Nc1ccc2c(c1)C(=O)OC21c2ccc(O)cc2Oc2cc(O)ccc21)C(C)C)C(=O)N[C@@H](CCCNC(=N)N)C(=O)O [FITC-PE 22-28] ({FITC}-GVSWGLR-OH)
[1]
  inhibition at 0.1 µM: 22.1 ± 12.6%

## CC(C)C[C@H](NC(=O)CNC(=O)[C@H](Cc1c[nH]c2ccccc12)NC(=O)[C@H](CO)NC(=O)[C@@H](NC(=O)CNC=O)C(C)C)C(=O)N[C@@H](CCCNC(=N)N)C(=O)O [Formyl-PE 22-28] (For-GVSWGLR-OH)
[2]
  inhibition at 0.1 µM: 32.5 ± 12.2%

## CC(C)C[C@H](NC(=O)CNC(=O)[C@H](Cc1c[nH]c2ccccc12)NC(=O)[C@H](CO)NC(=O)[C@@H](NC(=O)[C@H](C)N)C(C)C)C(=O)N[C@@H](CCCNC(=N)N)C(=O)O [G/A-PE 22-28] (H-AVSWGLR-OH)
[1]
  inhibition at 0.1 µM: 50.6 ± 7.93%

## CCCCCCCCCCCCCC(=O)NCC(=O)N[C@H](C(=O)N[C@@H](CO)C(=O)N[C@@H](Cc1c[nH]c2ccccc12)C(=O)NCC(=O)N[C@@H](CC(C)C)C(=O)N[C@@H](CCCNC(=N)N)C(=O)O)C(C)C [Myristoyl-PE 22-28] (Myristoyl-GVSWGLR-OH)
[2]
  inhibition at 0.1 µM: 18 ± 17.8%

## CC(C)[C@H](NC(=O)CN)C(=O)N[C@@H](CO)C(=O)N[C@@H](Cc1c[nH]c2ccccc12)C(=O)O [PE 22-25] (H-GVSW-OH)
[1]
  inhibition at 0.1 µM: 36 ± 17.5%

## CC(C)C[C@H](NC(=O)CNC(=O)[C@H](Cc1c[nH]c2ccccc12)NC(=O)[C@H](CO)NC(=O)[C@@H](NC(=O)CN)C(C)C)C(=O)O [PE 22-27] (H-GVSWGL-OH)
[1]
  inhibition at 0.1 µM: 25.7 ± 20%
